In patent EP3419609B1, “TREATMENT OF ALKAPTONURIA AND TYROSINEMIA TYPE 1” (Università degli Studi di Siena, priority 2016, dated 2017):
Where two headings read alike, the source gives them in different places.

Key:
[1] = tested on: human fibroblasts (HFb); test: Tyrosine dosage: intracellular tyrosine in HFb by LC-MS-MS; type: cell-based; settings: for slope of dose-response curve of intracellular tyrosine: tyrosine ng in 9×10^4 cells versus concentration, Figure 3A
Description: Intracellular tyrosine was calculated in HFb (9×10^4 cells/well) treated for 72 h with the compounds under assessment at various concentrations (10^-8, 10^-7, 10^-6 and 10^-5 M); controls were performed using the carrier at the concentration corresponding to the highest dose of the compound under assessment. At the end of treatment, the cells were recovered by scraping in the presence of norvaline (10^-3 M, used as internal standard, Sigma-Aldrich cod. N7627) and cold methanol (40 µL, Sigma-Aldrich cod. 34860), and subsequently lysed by cycles of freezing/thawing in a bath of dry ice/nitrogen. The lysate was centrifuged (6000g for 5 min) and the supernatant was then recovered, evaporated and re-suspended with 100 µL of 0.05% formic acid. Each sample was analysed by LC-MS-MS. In particular, the analysis was performed with a chromatographic instrument manufactured by Varian (Varian Inc.) run by the software Varian MS Workstation System Control Vers. […] Subsequently, the concentration of each compound was correlated with the amount of intracellular tyrosine contained in 9×10^4 cells and the resulting dose-response curve was obtained using the Origin® - Data Analysis and Graphing software by means of a linear type interpolating curve.
(§1) LD50 was evaluated in vitro using the MTT cell viability assay for the first time on human cells, in particular on primary human fibroblasts (HFb). […] Intracellular tyrosine was measured in HFb by LC-MS-MS analysis.

[2] = alkaptonuria patients, over the course of 3 years; cited from earlier work
[3] = tested on: primary human fibroblasts (HFb); test: in vitro; type: cell-based
Description: (§2) 12×10^4 primary human fibroblasts (ATCC, cat PCS-201-012) were treated with compounds at various concentrations (10^-7 M, 10^-6 M, 10^-5 M, 10^-4 M, 10^-3 M) for 24 and 144 h. HFb were cultured as described in [21]. Cellular viability was quantified by the MTT assay (Sigma-Aldrich cod. M5655) as described in [22]. Controls were performed treating the cells with vehicle (DMSO) alone. Calculation of LD50 was performed by means of the Origin® - Data Analysis and Graphing software using a sigmoid type interpolating curve.
as §1

[4] = biological target: T1, 4-HPPD (Rattus norvegicus, UniProt P32755); test: Determination of 4-HPPD activity by oxygen consumption (SDR SensorDish Reader) in rat liver cytosol; type: biochemical, male Wistar rat
T1 construct: from tissue; host or cells: liver cytosol of a male Wistar rat
T1 sequence (P32755 whole entry): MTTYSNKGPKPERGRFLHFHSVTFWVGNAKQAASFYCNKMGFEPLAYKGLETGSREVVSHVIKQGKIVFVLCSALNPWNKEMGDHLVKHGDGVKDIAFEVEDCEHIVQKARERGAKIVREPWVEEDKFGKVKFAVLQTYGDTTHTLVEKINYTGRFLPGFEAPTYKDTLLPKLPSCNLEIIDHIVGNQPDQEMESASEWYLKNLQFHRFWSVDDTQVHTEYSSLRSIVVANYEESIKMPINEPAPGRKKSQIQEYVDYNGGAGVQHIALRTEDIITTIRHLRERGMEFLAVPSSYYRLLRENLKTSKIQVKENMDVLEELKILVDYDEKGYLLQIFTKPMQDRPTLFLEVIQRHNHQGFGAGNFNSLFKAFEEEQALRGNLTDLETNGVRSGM
Description: 4-HPPD activity was evaluated in the liver cytosol of a male Wistar rat by monitoring oxygen consumption through the use of the SDR SensorDish® Reader (Presens, Precision Sensing GmbH, Regensburg, Germany). Briefly, a special test tube with an oxygen sensor placed on the bottom was filled with 0.2 M sodium phosphate buffer with pH 7.4, 1.7 mM ascorbic acid (used as a cofactor) and 10.92 mg of rat enzyme preparation (4-HPPD source). The mixture was equilibrated at 37°C for 5 min. and the reaction was started by the addition of substrate ([…], Sigma-Aldrich cod. SAE0003). […] The percentage of inhibition of enzymatic activity was calculated as the ratio of the slopes (decrease of the concentration of O2 (µmol/L) per min.) of the samples containing the inhibitor versus the untreated controls corrected with the negative control values. The IC50 values were calculated by means of regression analysis in the range of tested concentrations by means of the Origin® - Data Analysis and Graphing software using a sigmoid type interpolating curve and plotting on the x-axis the concentrations of the compounds and on the y-axis oxygen consumption values expressed as a percentage of 4-HPPD inhibition, the reduction of oxygen being correlated with inhibition of the enzyme.
4-HPPD inhibition was determined in the cytosolic extract of rat liver (source of the enzyme), by evaluation of enzymatic consumption of oxygen using the SDR SensorDish ® Reader, and was expressed as an IC50 value.

[5] = in vitro; type: cell-based; settings: after 144 h of treatment, concentration 1 mM; read-out: viability of HFb
Description: as §2, §1

[6] = rat liver cytosol, oxygen consumption, read-out: IC50
[7] = rat liver cytosol, oxygen consumption, read-out: IC50 (4-HPPD inhibitory activity)
[8] = rat liver cytosol, oxygen consumption

Structure (SMILES): O=C1CCCC(=O)C1C(=O)c1ccc(C(F)(F)F)cc1[N+](=O)[O-] [Compound 1, 2-(2-nitro-4-(trifluoromethyl)benzoyl)cyclohexane-1,3-dione, reference compound]
- intracellular tyrosine increased compared to untreated HFb ([1]; 72 h, concentration 10^-5 M): ~32%
- intracellular tyrosine increased compared to untreated HFb ([1]; 72 h, concentration 10^-6 M): about 21%
- slope of dose-response curve of intracellular tyrosine ([1]; 72 h): 5.47
- reduction of HGA in urine and plasma [2]: 95%
- LD50 24 hours ([3]; human, 24 h): >1 mM [c]
- LD50 at 24 h ([3]; human, 24 h): > 10^-3 M
- LD50 144 hours ([3]; human, 144 h): ~1 mM
- LD50 at 144 h ([3]; human, 144 h): 10^-3 M

Structure (SMILES): CS(=O)(=O)c1ccc(C(=O)C2C(=O)C(O)CC(O)C2=O)c(Cl)c1COCC(F)(F)F (centres unmarked) [Compound 2, 2-[2-Chloro-4-methylsulfonyl-3-(2,2,2-trifluoroetoxyimethyl)benzoyl]-4,6-dihydroxy-cyclohexane-1,3-dione]
- IC50 [4, 6]: 227 ± 9 nM
- LD50 24 hours ([3]; human, 24 h): 0.48 ± 0.04 mM
- LD50 144 hours ([3]; human, 144 h): 0.48 ± 0.03 mM

Structure (SMILES): CS(=O)(=O)c1ccc(C(=O)C2C(=O)CCCC2=O)c(Cl)c1COCC(F)(F)F [Compound 3, 2-[2-Chloro-4-methylsulfonyl-3-(2,2,2-trifluoroetoxymethyl)benzoyl]cyclohexane-1,3-dione]
- IC50 [4, 6]: 152 ± 6 nM
- IC50 [4, 7]: 152 nM
- slope of dose-response curve of intracellular tyrosine ([1]; 72 h): 1.89
- LD50 24 hours ([3]; HFb, MTT, 24 hours treatment): >1 mM [c]
- LD50 144 hours ([3]; HFb, MTT, 144 hours treatment): >1 mM [c]
- LD50 ([3]; HFb, treatment time not given): greater than 10^-3 M

Structure (SMILES): CS(=O)(=O)c1ccc(C(=O)C2C(=O)CCCC2=O)c([N+](=O)[O-])c1 [Compound 4, 2-(4-Methylsulfonyl-2-nitrobenzoyl)-cyclohexane-1,3-dione]
- IC50 [4, 6]: 36.7 ± 9.7 nM
- IC50 [4, 7]: 36.7 nM
- tyrosine level lower than in the control ([1]; 72 h, highest inhibitor concentration, p<0.01): about 14%
- intracellular tyrosine levels higher than in the control group ([1]; 72 h, lowest inhibitor concentration analysed, p<0.01): about 17%
- LD50 24 hours ([3]; HFb, MTT, 24 hours treatment): 1.1 ± 0.1 mM
- LD50 144 hours ([3]; HFb, MTT, 144 hours treatment): >1 mM [c]

Structure (SMILES): CS(=O)(=O)c1cc(C(F)(F)F)ccc1C(=O)c1cnoc1C1CC1 [Compound 5]
- IC50 [4]: 399 ± 19 nM
- LD50 24 hours ([3]; HFb, MTT, 24 hours treatment): >1 mM [c]
- LD50 144 hours ([3]; HFb, MTT, 144 hours treatment): 0.11 ± 0.07 mM

Structure (SMILES): CC1(C)CC(=O)C(C(=O)c2ccc([N+](=O)[O-])cc2Cl)C(=O)C1 [Compound 6, 2-(2-chloro-4-nitro-benzoyl)-5,5-dimethyl-cyclohexane-1,3-dione]
- residual activity of the enzyme ([4]; rat liver cytosol 4-HPPD): ~30%
- IC50 [4, 6]: 36.4 ± 9.3 nM
- IC50 ([4]; rat liver cytosol, read-out: IC50): ~36.4 nM
- intracellular tyrosine accumulation lower than that found for compound 1 ([1]; highest concentration tested, treatment for three days, p<0.01): about 7%
- viability at 144 h, 1 mM [5]: ~75%
- LD50 24 hours ([3]; human, 24 h): >1 mM [c]
- LD50 144 hours ([3]; human, 144 h): >1 mM [c]

Structure (SMILES): COC(=O)C1C(=O)C(C(=O)c2ccc([N+](=O)[O-])cc2)C(=O)CC1(C)C (centres unmarked) [Compound 7, 2,2-Dimethyl-5-(4-nitrobenzoyl)-4,6-dioxycyclohexane methyl carboxylate]
- IC50 [4, 8]: no inhibition
- LD50 24 hours ([3]; human, 24 h): 0.63 ± 0.12 mM
- LD50 144 hours ([3]; human, 144 h): >1 mM [c]

Structure (SMILES): CC1(C)CC(=O)C(C(=O)c2ccccc2)C(=O)C1Cl (centres unmarked) [Compound 8, 2-Benzoyl-4-chloro-5,5-dimethyl-cyclohexane-1,3-dione]
- IC50 [4, 8]: no inhibition
- LD50 24 hours ([3]; human, 24 h): >1 mM [c]
- LD50 144 hours ([3]; human, 144 h): >1 mM [c]

Structure (SMILES): CC1(C)CC(=O)C(C(=O)c2ccccc2)C(=O)C1 [Compound 9, 2-Benzoyl-5,5-dimethyl-cyclohexane-1,3-dione]
- IC50 [4, 8]: no inhibition
- LD50 24 hours ([3]; human, 24 h): >1 mM [c]
- LD50 144 hours ([3]; human, 144 h): >1 mM [c]

Structure (SMILES): Cc1cc(C2C(=O)C(C(=O)c3ccc(Cl)cc3)C(=O)CC2(C)C)on1 (centres unmarked) [Compound 10, 2-(4-chlorobenzoyl)-5,5-dimethyl-4-(3-methyl-isoxazol-5-yl)-cyclohexane-1,3-dione]
- IC50 [4, 6]: 59900 ± 1800 nM
- LD50 24 hours ([3]; human, 24 h): >1 mM [c]
- LD50 144 hours ([3]; human, 144 h): 0.82 ± 0.20 mM

Structure (SMILES): CC1(C)C(Cl)C(=O)C(C(=O)c2ccccc2)C(=O)C1Cl (centres unmarked) [Compound 11, 2-Benzoyl-4,6-dichloro-5,5-dimethyl-cyclohexane-1,3-dione]
- IC50 [4, 6]: 192 ± 2 nM
- LD50 24 hours ([3]; human, 24 h): >1 mM [c]
- LD50 144 hours ([3]; human, 144 h): 0.29 ± 0.08 mM

Structure (SMILES): O=C1CCC(c2ccccc2)C(=O)C1C(=O)c1ccc(Cl)cc1Cl (centres unmarked) [Compound 13, 2-(2,4-dichlorobenzoyl) -4-phenyl-cyclohexane-1,3-dione]
- IC50 [4, 6]: 279 ± 6 nM
- LD50 24 hours ([3]; human, 24 h): >1 mM [c]
- LD50 144 hours ([3]; human, 144 h): 0.36 ± 0.15 mM

Structure (SMILES): CC1(C)CC(=O)C(C(=O)c2ccc(C(F)(F)F)cc2Cl)C(=O)C1 [Compound 14, 2-(2-Chloro-4-trifluoromethylbenzoyl)-5,5-dimethyl-cyclohexane-1,3-dione]
- IC50 [4, 6]: 10500 ± 3700 nM
- cytotoxicity (in words) [3]: not cytotoxic

Structure (SMILES): CC1(C)CC(=O)C(C(=O)c2ccc(C(F)(F)F)cc2[N+](=O)[O-])C(=O)C1 [Compound 15, 2-(2-Nitro-4-trifluoromethylbenzoyl)-5,5-dimethyl-cyclohexane-1,3-dione]
- IC50 [4]: 61.6 ± 7.4 nM
- cytotoxicity (in words) ([3]; HFb, LD50 24 h): not cytotoxic
- LD50 24 hours ([3]; HFb, MTT, 24 hours treatment): > 0.01 mM
